Here are results for one sequence from publication PMC7503848 (International Journal of Molecular Sciences, 2020).

Entries after “also recorded” stand apart in the source; their conditions may differ.

One experiment relates to P. falciparum 3D7. In words: Growth inhibition assay (GIA), P. falciparum 3D7. It is filed as cell-based, Plasmodium falciparum. As to the method: P. falciparum 3D7 strain was thawed and cultured in vitro in human O+ erythrocytes at 4% hematocrit using the method described previously. Briefly, parasites were cultured in medium containing RPMI 1640 (Invitrogen, Carlsbad, CA, USA), supplemented with 2 g/L NaHCO3 (Sigma, St. Louis, MO, USA), 5 g/L albumax (Invitrogen), 50 mg/L hypoxanthine (Sigma), and 10 µg/mL gentamicin sulfate (Invitrogen, Carlsbad, CA, USA) at a pH of 7.2 under mixed gas condition (5% CO2, 5% O2, […]) at 37 °C.
For the growth inhibition assay, 36–38 h’ parasites were purified by percoll (GE Healthcare, Chicago, IL, USA) density gradient centrifugation. The assay was put on the late trophozoite stage in a 24-well plate in quadruplets in a total 500 µL volume/well. Initial parasitemia and hematocrit were adjusted to 1% and 2%, respectively. ZA1S peptide was added at a final concentration of 10 µM, 20 µM, and 40 µM. Control wells without any peptide or inhibitor were set to validate the normal growth rate of the parasite. After 24 h, a smear was made and fixed in methanol, followed by staining with 10% Giemsa (Sigma, St. Louis, MO, USA) for 10 min. The percent of infected erythrocytes containing different stages of the parasite was counted using a light microscope under 100X oil-immersion. The percent of growth inhibition was calculated using the following formula, and data were plotted graphically. % Growth inhibition = (Control-treated)/Control × 100

Experiment [1] concerns myosin A tail. In words: Far Western-Dot blot assay. The class given is binding, Plasmodium falciparum. Particulars: 5 µg immobilized on nitrocellulose; 5 µg/mL biotinylated myosin A tail, 2 h room temperature; anti-biotin. Here is the method: For Far-Western Dot-blot assay, 5 µg each of ZA1S peptide, BSA, and non-specific peptide (N′- pSDNGpSGDD -C′) was immobilized on the strip. Subsequent to the drying of the membrane, it was blocked overnight at 4 °C, following which the second peptide myosin A was overlaid in 5 µg/mL of binding solution (1% BSA/PBST) on the strip for 2 h at room temperature. The strip was washed stringently, and the bound myosin A peptide was detected using an anti-biotin antibody (1:100 dilution) and HRP-conjugated secondary antibody.

For experiment [2], the system named is myosin A tail. In words: ELISA, myosin A tail on immobilized ZA1S. It is filed as binding, Plasmodium falciparum. As to conditions: ZA1S coated, myosin A tail overlaid, anti-biotin antibody, 450 nm. From the text:
All wells were put up in triplicates.
On the technique in general: In an ELISA, binding on a coated surface is turned into a signal by an enzyme label.

For “DIDIDIMHE [ZA1S, nine amino acid long shortened peptide derived from ZA1 (…)]”, the Invasion inhibition entry in the experiment on P. falciparum 3D7 (10, 20, 40 µM ZA1S on late trophozoite/schizont stage, 24 h, 1% parasitemia, 2% hematocrit, human O+ erythrocytes, Giemsa smear) is “concentration-dependent increase in invasion inhibition; also recorded: abrogated the invasion of P. falciparum in RBCs”. Besides, the “Completeness of parasite invasion inhibition” value in the experiment on P. falciparum 3D7 (Pfal growth inhibition assay) is reported as “we did not find a complete disruption of myosin A/MTIP complex so as to completely inhibit parasite invasion”. In the experiment with P. falciparum 3D7 (increasing concentrations of ZA1S (10, 20, 40 µM), 24 h, Giemsa smear), the Parasite morphology result is recorded as “no change in the parasite morphology”. For the same sequence, the “Detection of bound myosin A” value in the experiment on myosin A tail [1] is on record as “Myosin A was detected in the spot corresponding to ZA1S”. Further, the “Binding of myosin A tail to ZA1S” value in the experiment with myosin A tail [2] was “significant binding”.
